These results are taken from publication PMC3760305, “Mimicking Protein–Protein Interactions through Peptide–Peptide Interactions: HIV-1 gp120 and CXCR4” (Frontiers in Immunology, 2013).

Usually Kd stands for the concentration at which binding is half-saturated.

Assay [1] addresses T1, CXCR4 mimetic peptide CX4-M1 (Homo sapiens, UniProt P61073). Briefly: Direct ELISA: fluoresceinylated V3 loop peptides binding to CX4-M1. The note with it: for effect of alanine substitution in V3HxBc2 on binding to CX4-M1: direct ELISA, relative to V3HxBc2; for binding of V3 loop peptide to CX4-M1 (direct ELISA): CX4-M1 0.5 μM on streptavidin plate, fluoresceinylated V3 loop peptides 250 or 100 nM, 3 h, absorbance 492 nm. The method, then: (§1) High binding microtiter plates (Immulon 2HB) were coated overnight at 4°C with streptavidin (4 μg/mL) in 0.1 M sodium carbonate buffer pH 9.5. Unspecific binding was blocked with 1% BSA in 0.1 M phosphate buffer pH 7.2, 200 μL/well for 1 h. All following steps were performed using 0.1 M phosphate buffer pH 7.2 containing 1% BSA (ELISA with V3 loop peptides) and 0.1% BSA (ELISA with gp120), respectively, as well as 0.01% Tween 20. Plates were incubated with 100 μL CX4-M1 variants (0.5 μM for binding to V3 loop peptides, 2.5 μM for binding to gp120), or biotin alone as a blank, for 2 h. Plates were then incubated for 3 h with fluoresceinylated V3 loop peptides (250 or 100 nM), or gp120 (8.3 nM, either with or without 8.3 nM sCD4). V3 loop peptides were detected using 100 μL/well mouse anti-fluorescein-HRP conjugate from antibodies online (3 μg/mL) for 1 h. Gp120 was detected using a two antibody system. Sheep anti-gp120 (D7324) from Aalto Bio Reagents (0.2 μg/mL) was added for 1 h, followed by a 1 h incubation with rabbit anti-sheep-HRP conjugate from Dianova (3 μg/mL), 100 μL/well. Plates were washed four times with 0.01% Tween 20 in 0.1 M phosphate buffer pH 7.2 (300 μL/well) after each incubation step. Plates were developed with 100 μL/well OPD (1 mg/mL) in the presence of 0.03% H2O2 for approximately 1.5 min (V3 loop peptide detection), or 3.5 min (gp120 detection) in the dark. After the reaction was stopped with 50 μL/well 2 M H2SO4, absorbances were read at 492 nm and corrected for the blank (sample with biotin instead of CX4-M1). All data points present means of at least duplicates.
(In general: An ELISA detects its analyte on a solid surface through an enzyme-linked reagent.)

Another assay relates to V3 loop peptide V3HxBc2. Briefly: Direct ELISA: CX4-M1 variants binding to V3 loop peptide. Particulars: variants 0.5 μM, fluoresceinylated V3HxBc2, relative to CX4-M1. On the set-up: species or system HIV-1. The protocol: as §1
In assay [2] the target is T2, gp120HxBc2 (Human immunodeficiency virus type 1 group M subtype B, UniProt P04578).
T2 construct: gp120MN, gp120ADA, and gp120HxBc2 from Immune Technology; purchased Immune Technology
In kind it is binding, HIV-1. The note with it: direct ELISA; variants 2.5 μM; gp120 8.3 nM in the presence of sCD4; relative to CX4-M1. The protocol: as §1

For assay [3], the target named is T1, CXCR4 mimetic peptide CX4-M1. Briefly: SPR: binding of V3 loop peptides to captured CX4-M1. The note with it: SPR Biacore X100; CX4-M1 (2 μM) bound to streptavidin; V3 loop peptides 5–0.3 μM; HBS-N pH 7.4, 0.05% Tween 20, 100 mM MgCl2. (SPR reads the build-up and loss of mass on a sensor chip optically.)
Method: (§2) All measurements were performed using a Biacore X100 instrument in conjunction with the Biotin CAPture Kit (both from GE Healthcare). Sensor chip CAP was hybridized with a 1:10 dilution of CAPture reagent (streptavidin conjugate) in running buffer. […] For dehybridization, a regeneration solution of 6 M guanidinium chloride and 250 mM sodium hydroxide was used. HBS-N buffer (10 mM HEPES, 150 mM sodium chloride, pH 7.4) containing 0.05% Tween 20, as well as 100 mM (V3 loop peptides) or 2.5 mM (gp120) magnesium chloride, was used as running buffer. Measurement and data evaluation was performed using Biacore X100 Control Software (Version 2.0) and Biacore X100 Evaluation Software (Version 2.0), respectively.
For assay [4], the target named is T2, gp120HxBc2. Briefly: SPR: binding of gp120 to captured CX4-M1. On the set-up: species or system HIV-1.
Method: as §2
The target in the next assay is T3, gp120MN (Human immunodeficiency virus type 1 group M subtype B, UniProt P05877).
T3 construct: gp120MN, gp120ADA, and gp120HxBc2 from Immune Technology; purchased Immune Technology
In words: SPR: binding of gp120 to captured CX4-M1. On the set-up: species or system HIV-1.

Entries after “also recorded” stand apart in the source; their conditions may differ.

Method for gp120MN: as §2

Consider “Fluo-X-G-X-CTRPNNNTRKRIRIQRGPGRAFVTAGKIGNMRQAHC-NH2 (disulfide) [V3HxBc2 I320A, alanine scan variant of V3HxBc2]”, for which the “effect of alanine substitution in V3HxBc2 on binding to CX4-M1” value (“effect of alanine substitution … to CX4-M1” for short) in assay [1] is on record as “strongly diminished binding”.
Regarding “Fluo-X-G-X-CTRPNNNTRKRIRIQRGPGRAAVTIGKIGNMRQAHC-NH2 (disulfide) [V3HxBc2 F317A, alanine scan variant of V3HxBc2]”, the “effect of alanine substitution … to CX4-M1” value in assay [1] is “strongly diminished binding”.
Same read-out and setting: the result for “Fluo-X-G-X-CTRPNNNTRKRIRIQRGPGRAFATIGKIGNMRQAHC-NH2 (disulfide) [V3HxBc2 V318A, alanine scan variant of V3HxBc2]” reads “strongly diminished binding”.
In the case of “Fluo-X-G-X––––-C^dRIRIQRGPGRAFVTIC^d–––––-NH2 (disulfide) [V3HxBc2 turn/beta, truncated variant of V3HxBc2 presenting the turn region and the two beta strands]”, the “binding of V3 loop peptide to CX4-M1 (direct ELISA)” value (from here on “binding of V3 loop peptide”) in assay [1] is given as “retained some of the affinity”.
Turning to “Fluo-X-G-X-CTRPNNNTRKRIAIQRGPGRAFVTIGKIGNMRQAHC-NH2 (disulfide) [V3HxBc2 R308A, alanine scan variant of V3HxBc2]”, in assay [1], the “effect of alanine substitution … to CX4-M1” value is “strongly diminished binding”.
Regarding “Ac-ECL1-X-B-X-DRYICDRFYPNDAWV-X-B-X-ECL3-X-K(Bio)-NH2 (disulfide) [CX4-M1 L194A, alanine substitution variant of ECL2 of CX4-M1]”, the “effect of alanine substitution in ECL2 of CX4-M1 on binding to V3HxBc2” value (“effect of alanine substitution … to V3HxBc2” for short) in the assay on V3 loop peptide V3HxBc2 is “enhancement of binding”. In addition, the “effect of alanine substitution in ECL2 of CX4-M1 on binding to gp120HxBc2” value (from here on “effect of alanine substitution … to gp120HxBc2”) at gp120HxBc2 [2] is given as “negative effect on the affinity; also recorded: attenuated binding”.
Regarding “Yc-X-G-X-CTRPNNNTRKSIHI–GPGRALYTTGEIIGDIRQAHC-NH2 (disulfide) [Peptide V3BAL, fluoresceinylated peptide presenting the V3 loop of gp120 from R5-tropic HIV-1 BAL]”, the “KD (V3 loop peptide) to CX4-M1” value in assay [3] is given as “No binding”.
Consider “Fluo-X-G-X––––––-C^dQRGPGRAC^d–––––––-NH2 (disulfide) [V3HxBc2 turn, truncated variant of V3HxBc2 presenting only the turn region]”, for which, in assay [1], the “binding of V3 loop peptide” value is “complete loss of binding”.
With “Ac-ECL1-X-B-X-DRAICDRFYPNDLWV-X-B-X-ECL3-X-K(Bio)-NH2 (disulfide) [CX4-M1 Y184A, alanine substitution variant of ECL2 of CX4-M1]”, the “effect of alanine substitution … to V3HxBc2” value in the assay on V3 loop peptide V3HxBc2 is reported as “enhancement of binding”. Also, the “effect of alanine substitution … to gp120HxBc2” value at gp120HxBc2 [2] is on record as “attenuated binding”.
Regarding “Ac-ECL1-X-B-X-DRYICDRFAPNDLWV-X-B-X-ECL3-X-K(Bio)-NH2 (disulfide) [CX4-M1 Y190A, alanine substitution variant of ECL2 of CX4-M1]”, the “effect of alanine substitution … to V3HxBc2” value with V3 loop peptide V3HxBc2 is recorded as “enhancement of binding”. Also, the “effect of alanine substitution … to gp120HxBc2” value at gp120HxBc2 [2] is on record as “attenuated binding”.
Turning to “Ac-ECL1-X-B-X-DRYICDRFYPNDLWA-X-B-X-ECL3-X-K(Bio)-NH2 (disulfide) [CX4-M1 V196A, alanine substitution variant of ECL2 of CX4-M1]”, the “effect of alanine substitution … to V3HxBc2” value with V3 loop peptide V3HxBc2 is on record as “enhancement of binding”.
As for “Fluo-X-G-X-CTRPNNNTRKSIHI–GPGRAFYTTGEIIGDIRQAHC-NH2 (disulfide) [Peptide V3ADA, fluoresceinylated peptide presenting the V3 loop of gp120 from R5-tropic HIV-1 ADA]”, the “KD (V3 loop peptide) to CX4-M1” value in assay [3] is on record as “No binding”.
Consider “Fluo-X-G-X-CTRPNNNTRKRIRAQRGPGRAFVTIGKIGNMRQAHC-NH2 (disulfide) [V3HxBc2 I309A, alanine scan variant of V3HxBc2]”, for which the “effect of alanine substitution … to CX4-M1” value in assay [1] is “strongly diminished binding”.
Same read-out and setting: the result for “Fluo-X-G-X-CTRPNNNTRKRARIQRGPGRAFVTIGKIGNMRQAHC-NH2 (disulfide) [V3HxBc2 I307A, alanine scan variant of V3HxBc2]” reads “strongly diminished binding”.
As for “Fluo-X-G-X-CTRPNNNTRK––QRGPGRA–-GKIGNMRQAHC–NH2 (disulfide) [V3HxBc2 Δbeta]”, the “binding of V3 loop peptide” value in assay [1] is given as “complete loss of binding”.
As to `CC[C@H](C)[C@@H]1NC(=O)[C@H](Cc2ccc(O)cc2)NC(=O)[C@H](CCCNC(=N)N)NC(=O)[C@H](CC(=O)O)NC(=O)CCCCCNC(=O)CCNC(=O)CCCCCNC(=O)[C@H](CCCCN)NC(=O)[C@@H](NC(=O)[C@H](CC(C)C)NC(=O)[C@H](Cc2ccccc2)NC(=O)[C@H](CC(N)=O)NC(=O)CNC(=O)[C@H](Cc2ccccc2)NC(=O)[C@H](Cc2ccc(O)cc2)NC(=O)[C@H](Cc2c[nH]c3ccccc23)NC(=O)[C@H](CC(N)=O)NC(=O)[C@H](C)NC(=O)[C@@H](NC(=O)[C@H](C)NC(=O)[C@H](CC(=O)O)NC(C)=O)C(C)C)CSSC[C@@H](C(=O)N[C@@H](CC(=O)O)C(=O)N[C@@H](CCCNC(=N)N)C(=O)N[C@@H](Cc2ccccc2)C(=O)N[C@@H](Cc2ccc(O)cc2)C(=O)N2CCC[C@H]2C(=O)N[C@@H](CC(N)=O)C(=O)N[C@@H](CC(=O)O)C(=O)N[C@@H](CC(C)C)C(=O)N[C@@H](Cc2c[nH]c3ccccc23)C(=O)N[C@H](C(=O)NCCCCCC(=O)NCCC(=O)NCCCCCC(=O)N[C@@H](CC(=O)O)C(=O)N[C@@H](CO)C(=O)N[C@@H](Cc2ccccc2)C(=O)N[C@H](C(=O)N[C@@H](CC(C)C)C(=O)N[C@@H](CC(C)C)C(=O)N[C@@H](CCC(=O)O)C(=O)N[C@H](C(=O)N[C@H](C(=O)N[C@@H](CCCCN)C(=O)N[C@@H](CCC(N)=O)C(=O)NCC(=O)N[C@@H](CO)C(=O)N[C@@H](CCC(=O)O)C(=O)N[C@@H](Cc2ccccc2)C(=O)N[C@@H](CCC(=O)O)C(=O)N[C@@H](CC(N)=O)C(=O)N[C@H](C(=O)N[C@H](C(=O)N[C@@H](Cc2c[nH]cn2)C(=O)N[C@@H](CCCCN)C(=O)NCCCCCC(=O)N[C@@H](CCCCNC(=O)CCCC[C@@H]2SC[C@@H]3NC(=O)N[C@@H]32)C(N)=O)C(C)C)[C@@H](C)O)[C@@H](C)CC)[C@@H](C)CC)[C@@H](C)CC)C(C)C)NC1=O` [CX4-M1], the equilibrium dissociation constant (Kd) on gp120HxBc2 [4] came to 200 nM; at gp120MN, 700 nM.
